For 11 compounds, IC50 results are on record in US10538555B2, “Macrocyclic inhibitors of the PD-1/PD-L1 and CD80(B7-1)/PD-L1 protein/protein interactions” (BRISTOL-MYERS SQUIBB COMPANY, priority 2014, dated 2020).

The structures appear in SMILES notation. *1 amine or outer side, *2 acyl side, *3 side chain or, on linkers, in order; H or OH if unused. Where a SMILES comes first, the peptide text is derived from it. Bridges are numbered along the chain shown (N, C = ends). [ ]: non-standard residue; d: D form. ξ: configuration not given here. Trp(1-CH2COOH) = N[C@@H](Cc1cn(CC(=O)O)c2ccccc12)C(=O)O; Phe(3,4,5-F3) = N[C@@H](Cc1cc(F)c(F)c(F)c1)C(=O)O; NMePhe(4-F) = CN[C@@H](Cc1ccc(F)cc1)C(=O)O; d(cisHyp) = O=C(O)[C@H]1C[C@@H](O)CN1; Hyp = O=C(O)[C@@H]1C[C@@H](O)CN1; NMeF = CN[C@@H](Cc1ccccc1)C(=O)O; X1 = O=C([C@H]1COCCN1[*:1])[*:2]; dHyp = O=C(O)[C@H]1C[C@H](O)CN1; NMeNle = CCCC[C@H](NC)C(=O)O; hSer = N[C@@H](CCO)C(=O)O; NMeA = CN[C@@H](C)C(=O)O; Orn = NCCC[C@H](N)C(=O)O; Dab = NCC[C@H](N)C(=O)O; Abu = CC[C@H](N)C(=O)O; Dap = NC[C@H](N)C(=O)O; ξC = NC(CS)C(=O)O; Sar = CNCC(=O)O

This experiment concerns the target T1, Human PD-L1/PD-1 (Homo sapiens, UniProt Q9NZQ7).
T1 construct: TVMV protease cleavage site (C); made in house; host or cells: HEK293T cells
Description: HTRF Human PD-L1/PD-1 binding assay (PD-1-Ig/PD-L1-His). The conditions noted are these: PD-L1-His 10 nM, PD-1-Ig 20 nM; class symbol; read-out: HTRF Human PD-L1/PD-1 Binding Assay IC50 Range. The procedure, abridged: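 HTRF read-out (665/620 nm ratio) after 30 min equilibration with Eu-cryptate anti-Ig mAb (1 nM) and APC anti-His mAb (20 nM). Peptides preincubated 15 min with PD-L1-His (10 nM), then PD-1-Ig (20 nM) added for 15 min.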

T1 sequence (Q9NZQ7 with tags, fused parts or gaps): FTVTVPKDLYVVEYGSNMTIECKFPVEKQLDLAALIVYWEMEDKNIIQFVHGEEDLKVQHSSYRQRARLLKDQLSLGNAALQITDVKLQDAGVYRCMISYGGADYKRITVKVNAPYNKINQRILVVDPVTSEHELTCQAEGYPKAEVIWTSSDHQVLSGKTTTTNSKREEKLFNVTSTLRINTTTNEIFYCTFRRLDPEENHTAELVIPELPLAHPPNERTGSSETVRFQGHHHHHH

With `CCCC[C@H]1C(=O)N(C)[C@@H](CCCC)C(=O)N[C@@H](CCCN)C(=O)N[C@H](C(=O)NCC(N)=O)CSCC(=O)N[C@@H](Cc2ccc(OC)cc2)C(=O)N(C)[C@@H](C)C(=O)N[C@@H](CCN)C(=O)N2CCC[C@H]2C(=O)N[C@@H](Cc2cnc[nH]2)C(=O)N[C@@H](CCC(=O)O)C(=O)N2C[C@H](O)C[C@H]2C(=O)N[C@@H](Cc2c[nH]c3ccccc23)C(=O)N[C@@H](CC(=O)O)C(=O)N[C@@H](Cc2c[nH]c3ccccc23)C(=O)N1C` [Example 7104] ({CH2CO}-Y(Me)[NMeA][Dab]PHE[Hyp]WDW[NMeNle][NMeNle][Orn]CG-NH2; thioether N-14), the IC50 was 10 to 99.9 nM.

As to `CCCC[C@H]1C(=O)N(C)[C@@H](CCCC)C(=O)N[C@@H](CC(C)C)C(=O)N[C@H](C(=O)NCC(N)=O)CSCC(=O)N[C@@H](Cc2ccc(OC)cc2)C(=O)N(C)[C@@H](C)C(=O)N[C@@H](CC(=O)O)C(=O)N2CCC[C@H]2C(=O)N[C@@H](Cc2cnc[nH]2)C(=O)N[C@@H](CCCCN)C(=O)N2C[C@H](O)C[C@@H]2C(=O)N[C@@H](Cc2c[nH]c3ccccc23)C(=O)N[C@@H](CCCCN)C(=O)N[C@@H](Cc2cn(CC(=O)O)c3ccccc23)C(=O)N1C` [Example 7153] ({CH2CO}-Y(Me)[NMeA]DPHK[d(cisHyp)]WK[Trp(1-CH2COOH)][NMeNle][NMeNle]LCG-NH2; thioether N-14), the IC50 was 1 to 9.9 nM.

For the compound `CCCC[C@H]1C(=O)N(C)[C@@H](CCCC)C(=O)N[C@@H](CC(C)C)C(=O)N[C@H](C(=O)NCC(N)=O)CSCC(=O)N[C@@H](Cc2ccc(OC)cc2)C(=O)N(C)[C@@H](C)C(=O)N[C@@H](CC(N)=O)C(=O)N2CCC[C@H]2C(=O)N[C@@H](CO)C(=O)N[C@@H](CCC(N)=O)C(=O)N2C[C@H](O)C[C@H]2C(=O)N[C@@H](Cc2c[nH]c3ccccc23)C(=O)N[C@@H](CO)C(=O)N[C@@H](Cc2c[nH]c3ccccc23)C(=O)N1C` [Example 7136] ({CH2CO}-Y(Me)[NMeA]NPSQ[Hyp]WSW[NMeNle][NMeNle]LCG-NH2; thioether N-14), the IC50 is 1 to 9.9 nM.

Regarding `CCCC[C@H]1C(=O)N[C@@H](CC(N)=O)C(=O)N2CCC[C@H]2C(=O)N[C@@H](CO)C(=O)N[C@@H](CCO)C(=O)N2CCC[C@H]2C(=O)N[C@@H](Cc2c[nH]c3ccccc23)C(=O)N[C@@H](CCN)C(=O)N[C@@H](Cc2c[nH]c3ccccc23)C(=O)N(C)[C@@H](C)C(=O)N(C)[C@@H](C)C(=O)N[C@@H](CCCNC(=N)N)C(=O)NC(C(=O)NCC(N)=O)CSCC(=O)N[C@@H](Cc2ccc(O)cc2)C(=O)N1C` (some centres unmarked) [Example 10203] ({CH2CO}-Y[NMeNle]NPS[hSer]PW[Dab]W[NMeA][NMeA]R[ξC]G-NH2; thioether N-14), the IC50 was in the range of 1000 to 10000 nM.

For `CCCC[C@H]1C(=O)N2C[C@H](O)C[C@@H]2C(=O)N[C@@H](CC(=O)O)C(=O)N[C@@H](C(C)C)C(=O)N(C)[C@@H](Cc2ccccc2)C(=O)N[C@@H](CCC(=O)O)C(=O)N2C[C@@H](O)C[C@@H]2C(=O)N[C@@H](Cc2c[nH]c3ccccc23)C(=O)N[C@@H](Cc2ccc(O)cc2)C(=O)N[C@@H](CCCN)C(=O)N[C@H](C(=O)NCC(N)=O)CSCC(=O)N[C@@H](Cc2cc(F)c(F)c(F)c2)C(=O)N(C)[C@@H](Cc2ccccc2)C(=O)N1C` [Example 9374] ({CH2CO}-[Phe(3,4,5-F3)][NMeF][NMeNle][d(cisHyp)]DV[NMeF]E[dHyp]WY[Orn]CG-NH2; thioether N-13), the IC50 lay in the range of 10 to 99.9 nM.

Consider `CCCC[C@H]1C(=O)N(C)[C@@H](CCCC)C(=O)N[C@@H](CCC(=O)O)C(=O)N[C@H](C(=O)NCC(N)=O)CSCC(=O)N[C@@H](Cc2ccc(O)cc2)C(=O)N(C)[C@@H](C)C(=O)N[C@@H](CC(=O)O)C(=O)N2CCC[C@H]2C(=O)N[C@@H](Cc2cnc[nH]2)C(=O)N[C@@H](CCC(N)=O)C(=O)N2C[C@H](O)C[C@H]2C(=O)N[C@@H](Cc2c[nH]c3ccccc23)C(=O)N[C@@H](CO)C(=O)N[C@@H](Cc2cn(CC(=O)O)c3ccccc23)C(=O)N1C` [Example 6335] ({CH2CO}-Y[NMeA]DPHQ[Hyp]WS[Trp(1-CH2COOH)][NMeNle][NMeNle]ECG-NH2; thioether N-14), for which the IC50 fell in the range of 1 to 9.9 nM.

For the compound `CCCC[C@H]1C(=O)N(C)[C@@H](CCCC)C(=O)N[C@@H](CC(=O)O)C(=O)N[C@H](C(=O)NCC(N)=O)CSCC(=O)N[C@@H](Cc2ccc(O)cc2)C(=O)N(C)[C@@H](C)C(=O)N[C@@H](CC(=O)O)C(=O)N2CCC[C@H]2C(=O)N[C@@H](Cc2cnc[nH]2)C(=O)N[C@@H](CCCCN)C(=O)N2C[C@H](O)C[C@H]2C(=O)N[C@@H](Cc2c[nH]c3ccccc23)C(=O)N[C@@H](CCCCN)C(=O)N[C@@H](Cc2cn(CC(=O)O)c3ccccc23)C(=O)N1C` [Example 6209] ({CH2CO}-Y[NMeA]DPHK[Hyp]WK[Trp(1-CH2COOH)][NMeNle][NMeNle]DCG-NH2; thioether N-14), the IC50 lay in the range of 1 to 9.9 nM.

As to `CCCC[C@H]1C(=O)N2CCC[C@@H]2C(=O)N[C@@H](CO)C(=O)N[C@@H](CC)C(=O)N(C)[C@@H](Cc2ccccc2)C(=O)N[C@@H](Cc2ccc(O)cc2)C(=O)N(C)CC(=O)N[C@@H](Cc2c[nH]c3ccccc23)C(=O)N[C@@H](Cc2ccc(O)cc2)C(=O)N[C@@H](CC(C)C)C(=O)N[C@H](C(=O)NCC(N)=O)CSCC(=O)N[C@@H](Cc2ccccc2)C(=O)N(C)[C@@H](Cc2ccccc2)C(=O)N1C` [Example 10058] ({CH2CO}-F[NMeF][NMeNle][dP]S[Abu][NMeF]Y[Sar]WYLCG-NH2; thioether N-13), the IC50 was in the range of 10 to 99.9 nM.

Take `CCCC[C@H]1C(=O)N2C[C@H](O)C[C@@H]2C(=O)N[C@@H](CC(=O)O)C(=O)N[C@@H](C(C)C)C(=O)N(C)[C@@H](Cc2ccccc2)C(=O)N[C@@H](CCC(=O)O)C(=O)N2CCOC[C@@H]2C(=O)N[C@@H](Cc2c[nH]c3ccccc23)C(=O)N[C@@H](Cc2ccc(O)cc2)C(=O)N[C@@H](CCCN)C(=O)N[C@H](C(=O)NCC(N)=O)CSCC(=O)N[C@@H](Cc2cc(F)c(F)c(F)c2)C(=O)N(C)[C@@H](Cc2ccc(F)cc2)C(=O)N1C` [Example 10590] ({CH2CO}-[Phe(3,4,5-F3)][NMePhe(4-F)][NMeNle][d(cisHyp)]DV[NMeF]E[X1]WY[Orn]CG-NH2; thioether N-13): the IC50 is 1 to 9.9 nM.

With `CCCC[C@H]1C(=O)N(C)[C@@H](CCCC)C(=O)N[C@@H](CCCNC(=N)N)C(=O)NC(C(=O)NCC(N)=O)CSCC(=O)N[C@@H](Cc2ccc(O)cc2)C(=O)N(C)[C@@H](C)C(=O)N[C@@H](CC(N)=O)C(=O)N2CCC[C@H]2C(=O)N[C@@H](CCO)C(=O)N[C@@H](CC(C)C)C(=O)N2C[C@H](O)C[C@H]2C(=O)N[C@@H](Cc2c[nH]c3ccccc23)C(=O)N[C@@H](CO)C(=O)N[C@@H](Cc2c[nH]c3ccccc23)C(=O)N1C` (some centres unmarked) [Example 9127] ({CH2CO}-Y[NMeA]NP[hSer]L[Hyp]WSW[NMeNle][NMeNle]R[ξC]G-NH2; thioether N-14), the IC50 was 1 to 9.9 nM.

For the compound `CCCC[C@H]1C(=O)N(C)[C@@H](CCCC)C(=O)N[C@@H](CN)C(=O)N[C@H](C(=O)NCC(N)=O)CSCC(=O)N[C@@H](Cc2ccc(O)cc2)C(=O)N(C)[C@@H](C)C(=O)N[C@@H](CC(=O)O)C(=O)N2CCC[C@H]2C(=O)N[C@@H](CN)C(=O)N[C@@H](CCC(N)=O)C(=O)N2C[C@H](O)C[C@H]2C(=O)N[C@@H](Cc2c[nH]c3ccccc23)C(=O)N[C@@H](CO)C(=O)N[C@@H](Cc2cn(CC(=O)O)c3ccccc23)C(=O)N1C` [Example 5226] ({CH2CO}-Y[NMeA]DP[Dap]Q[Hyp]WS[Trp(1-CH2COOH)][NMeNle][NMeNle][Dap]CG-NH2; thioether N-14), the IC50 fell in the range of 1 to 9.9 nM.
